Results: patent US9617276B2, “Compounds and methods for treating AIDS and HIV infections” (priority 2009, dated 2017)

How the values were obtained:
Assay in all cases: microbe, parasite or virus in culture
HIV-1286-1μM = assay type: cell-based, HIV-1; conditions: for EC50: Human immunodeficiency virus 1, MT4, read-out: EC50 (μM), HIV-1286-1 μM; for n-fold change in EC50, HIV-1286-1 μM: compared to wild-type HIV-1NL4-3
Method: (§1) Briefly, MT-2 cells (2×10^4/ml) were exposed to 100 50% tissue culture infectious doses (TCID50S) of HIV-1LAI, in the presence or absence of various concentrations of drugs in 96-well microculture plates and were incubated at 37° C. for 7 days. After 100 μl of the medium was removed from each well, 3-(4,5-dimetylthiazol-2-yl)-2,5-diphenyltetrazolium bromide (MTT) solution (10 μl, 7.5 mg/ml in phosphate-buffered saline) was added to each well in the plate, followed by incubation at 37° C. for 3 h. […] All assays were performed in duplicate or triplicate. […] To determine the drug susceptibility of certain laboratory HIV-1 strains, MT-4 cells were used as target cells. In brief, MT-4 cells (10^5/ml) were exposed to 100 TCID50S of drug-resistant HIV-1 strains in the presence or absence of various concentrations of drugs and on day 7 of culture, the supernatant was harvested and the amounts of p24 Gag protein were determined. […] All assays were performed in duplicate or triplicate.
(§2) Numbers in parentheses represent n-fold changes in EC50s for each isolate compared to the EC50s for wild-type HIV-1NL4-3.

HIV-1396-1μM = assay type: cell-based, HIV-1; conditions: for EC50: Human immunodeficiency virus 1, MT4, read-out: EC50 (μM), HIV-1396-1 μM; for n-fold change in EC50, HIV-1396-1 μM: compared to wild-type HIV-1NL4-3
Method: as §1, §2

HIV-1246-1μM = assay type: cell-based, HIV-1; conditions: for EC50: Human immunodeficiency virus 1, MT4, read-out: EC50 (μM), HIV-1246-1 μM; for n-fold change in EC50, HIV-1246-1 μM: compared to wild-type HIV-1NL4-3
Method: as §1, §2

HIV-1MDR/MM = assay type: cell-based; conditions: for EC50: Human immunodeficiency virus 1, read-out: EC50 (μM), HIV-1MDR/MM (NSI); for n-fold change of EC50, HIV-1MDR/MM: compared to wild-type HIV-1ERS104pre
Method: (§3) The susceptibility of HIV-1LAI and primary HIV-1 isolates to various drugs were determined as described previously (Koh et al. 2003 Antimicrob Agents Chemother 47:3123-9). Briefly, MT-2 cells (2×10^4/ml) were exposed to 100 50% tissue culture infectious doses (TCID50S) of HIV-1LAI, in the presence or absence of various concentrations of drugs in 96-well microculture plates and were incubated at 37° C. for 7 days. After 100 μl of the medium was removed from each well, 3-(4,5-dimetylthiazol-2-yl)-2,5-diphenyltetrazolium bromide (MTT) solution (10 μl, 7.5 mg/ml in phosphate-buffered saline) was added to each well in the plate, followed by incubation at 37° C. for 3 h. […] All assays were performed in duplicate or triplicate. To determine the susceptibility of primary HIV-1 isolates to drugs, phytohemagglutinin-activated peripheral blood mononuclear cells (PHA-PBMCs; 106/ml) were exposed to 50 TCID50S of each. The target cells were exposed to HIV-1104pre or drug-resistant HIV-1 in the presence or absence of various concentrations of drugs and were incubated for 7 days. Upon the conclusion of the culture, the amounts of p24 Gag protein in the supernatants were determined using a fully automated chemiluminescent enzyme immunoassay system (Lumipulse F; Fujirebio Inc., Tokyo, Japan) (Maeda et al. 2001 J Biol Chem 276:35194-200). To determine the drug susceptibility of certain laboratory HIV-1 strains, MT-4 cells were used as target cells. In brief, MT-4 cells (10^5/ml) were exposed to 100 TCID50S of drug-resistant HIV-1 strains in the presence or absence of various concentrations of drugs and on day 7 of culture, the supernatant was harvested and the amounts of p24 Gag protein were determined. […] All assays were performed in duplicate or triplicate.
(§4) These clinical strains contained 9 to 14 amino acid substitutions in the protease-encoding region, which have reportedly been associated with HIV-1 resistance to various PIs.
(§5) Amino acid substitutions identified in the protease-encoding region compared to the consensus type B sequence cited from the Los Alamos database include L63P in HIV-1ERS104pre; L10I, K14R, L33I, M36I, M46I, F53I, K55R, I62V, L63P, A71V, G73S, V82A, L90M, and I93L in HIV-1MDR/B; L10I, I15V, K20R, L24I, M36I, M46L, I54V, I62V, L63P, K70Q, V82A, and L89M in HIV-1MDR/C; L10I, V11I, T12E, I15V, L19I, R41K, M46L, L63P, A71T, V82A, and L90M in HIV-1MDR/G; L10I, K14R, R41K, M46L, I54V, L63P, A71V, V82A, L90M, I93L in HIV-1MDR/TM; L10I, K43T, M46L, I54V, L63P, A71V, V82A, L90M, and Q92K in HIV-1MDR/MM; L10I, L24I, I33F, E35D, M36I, N37S, M46L, I54V, R57K, I62V, L63P, A71V, G73S, and V82A in HIV-1MDR/JSL. HIV-1ERS104pre served as a source of wild-type HIV-1. EC50s were determined by using PHA-PBMs as target cells, and inhibition of p24 Gag protein production by each drug was used as an end point. Numbers in parentheses represent n-fold changes of EC50s for each isolate compared to EC50s for wild-type HIV-1ERS104pre.

HIV-1MDR/JSL = assay type: cell-based; conditions: for EC50: Human immunodeficiency virus 1, read-out: EC50 (μM), HIV-1MDR/JSL (NSI); for n-fold change of EC50, HIV-1MDR/JSL: compared to wild-type HIV-1ERS104pre
Method: as §3, §4, §5

HIV-1AZV5μM = assay type: cell-based; conditions: for EC50: Human immunodeficiency virus 1, MT4, read-out: EC50 (μM), HIV-1AZV5 μM; for n-fold change in EC50, HIV-1AZV5 μM: compared to wild-type HIV-1NL4-3
Method: as §3, §2

HIV-1LPV5μM = assay type: cell-based; conditions: for EC50: Human immunodeficiency virus 1, MT4, read-out: EC50 (μM), HIV-1LPV5 μM; for n-fold change in EC50, HIV-1LPV5 μM: compared to wild-type HIV-1NL4-3
Method: as §3, §2

HIV-1APV5μM = assay type: cell-based; conditions: for EC50: Human immunodeficiency virus 1, MT4, read-out: EC50 (μM), HIV-1APV5 μM; for n-fold change in EC50, HIV-1APV5 μM: compared to wild-type HIV-1NL4-3
Method: as §3, §2

HIV-1SQV5μM = assay type: cell-based; conditions: for EC50: Human immunodeficiency virus 1, MT4, read-out: EC50 (μM), HIV-1SQV5 μM; for n-fold change in EC50, HIV-1SQV5 μM: compared to wild-type HIV-1NL4-3
Method: as §3, §2

HIV-1NFV5μM = assay type: cell-based; conditions: for EC50: Human immunodeficiency virus 1, MT4, read-out: EC50 (μM), HIV-1NPV5 μM; for n-fold change in EC50, HIV-1NPV5 μM: compared to wild-type HIV-1NL4-3
Method: as §3, §2

SMILES | EC50 (HIV-1286-1μM) [µM] | EC50 (HIV-1396-1μM) [µM] | EC50 (HIV-1246-1μM) [µM] | EC50 (HIV-1MDR/MM) [µM] | EC50 (HIV-1MDR/JSL) [µM] | EC50 (HIV-1AZV5μM) [µM] | EC50 (HIV-1LPV5μM) [µM] | EC50 (HIV-1APV5μM) [µM] | EC50 (HIV-1SQV5μM) [µM] | EC50 (HIV-1NFV5μM) [µM] | n-fold change in EC50, HIV-1286-1 μM (HIV-1286-1μM) | n-fold change in EC50, HIV-1396-1 μM (HIV-1396-1μM) | n-fold change in EC50, HIV-1246-1 μM (HIV-1246-1μM) | n-fold change of EC50, HIV-1MDR/MM (HIV-1MDR/MM) | n-fold change of EC50, HIV-1MDR/JSL (HIV-1MDR/JSL) | n-fold change in EC50, HIV-1AZV5 μM (HIV-1AZV5μM) | n-fold change in EC50, HIV-1LPV5 μM (HIV-1LPV5μM) | n-fold change in EC50, HIV-1APV5 μM (HIV-1APV5μM) | n-fold change in EC50, HIV-1SQV5 μM (HIV-1SQV5μM) | n-fold change in EC50, HIV-1NPV5 μM (HIV-1NFV5μM)
CC(C)CN(C[C@@H](O)[C@H](Cc1ccccc1)NC(=O)O[C@H]1CCOC1)S(=O)(=O)c1ccc(N)cc1 [APV, Amprenavir] | > 1 | 0.35 ± 0.0002 | 0.34 ± 0.015 | 0.21 ± 0.222 | 0.62 ± 0.02 | 0.28 ± 0.06 | 0.26 ± 0.07 | > 1 | 0.18 ± 0.1 | 0.028 ± 0.005 |  |  |  |  |  |  |  |  |  | 
COC(=O)N[C@H](C(=O)N[C@@H](Cc1ccccc1)[C@@H](O)CN(Cc1ccc(-c2ccccn2)cc1)NC(=O)[C@@H](NC(=O)OC)C(C)(C)C)C(C)(C)C [AZV, Atazanavir] | 0.021 ± 0.012 | 0.024 ± 0.002 | 0.032 ± 0.003 | 0.18 ± 0.021 | 0.43 ± 0.036 | > 1 | 0.036 ± 0.001 | 0.006 ± 0.002 | 0.21 ± 0.065 | 0.027 ± 0.005 | (7) | (8) | (10) | (39) | (215) | > 250 | (9) | (2) | (53) | (7)
Cc1cccc(C)c1OCC(=O)N[C@@H](Cc1ccccc1)[C@@H](O)C[C@H](Cc1ccccc1)NC(=O)[C@H](C(C)C)N1CCCNC1=O [LPV, lopinavir] | > 1 | 0.28 ± 0.05 | 0.33 ± 0.04 | > 1 | > 1 | > 1 | > 1 | > 1 | 0.12 ± 0.02 | 0.037 ± 0.004 | > 23 | (6) | (8) | > 29 | > 29 | > 22 | > 22 | > 22 | (2) | (1)
